The target in this assay is T1, human V1a receptor (Homo sapiens, UniProt P37288).
T1 construct: expressed in transfected cells; host or cells: HEK293 cells, transiently transfected; membranes prepared
In words: human V1a receptor binding (3H-Vasopressin SPA, HEK293 membranes). Conditions: 3H-Vasopressin displacement, membranes of HEK293 cells transiently transfected with human V1a; Ki by Cheng-Prussoff; read-out: pKi (hV1a) (converted). How it is done:
The human V1a receptor was cloned by RT-PCR from total human liver RNA. The coding sequence was subcloned in an expression vector after sequencing to confirm the identity of the amplified sequence. […] Cell membranes were prepared from HEK293 cells transiently transfected with the expression vector and grown in 20 liter fermenters with the following protocol.
50 g of cells were resuspended in 30 ml freshly prepared ice cold Lysis buffer (50 mM HEPES, 1 mM EDTA, 10 mM MgCl2 adjusted to pH=7.4+complete cocktail of protease inhibitor (Roche Diagnostics)); homogenized with Polytron for 1 min, and sonicated on ice for 2×2 minutes at 80% intensity (Vibracell sonicator). The preparation was centrifuged 20 min at 500 g at 4° C., the pellet was discarded and the supernatant centrifuged 1 hour at 43,000 g at 4° C. (19,000 rpm). The pellet was resuspended in 12.5 ml Lysis buffer+12.5 ml Sucrose 20% and homogenized using a Polytron for 1-2 min. The protein concentration was determined by the Bradford method and aliquots were stored at −80° C. until use. For binding studies 60 mg Yttrium silicate SPA beads (Amersham) were mixed with an aliquot of membrane in binding buffer (50 mM Tris, 120 mM NaCl, 5 mM KCl, 2 mM CaCl2, 10 mM MgCl2) for 15 minutes with mixing. 50 ul of bead/membrane mixture was then added to each well of a 96 well plate, followed by 50 ul of 4 nM 3H-Vasopressin (American Radiolabeled Chemicals). For total binding measurement 100 ul of binding buffer were added to the respective wells, for non-specific binding 100 ul of 8.4 mM cold vasopressin and for compound testing 100 ul of a serial dilution of each compound in 2% DMSO. The plate was incubated 1 h at room temperature, centrifuged 1 min at 1000 g and counted on a Packard Top-Count. Non-specific binding counts wee subtracted from each well and data was normalized to the maximum specific binding set at 100%. To calculate an IC 50 the curve was fitted using a non-linear regression model (XLfit), and the Ki was calculated using the Cheng-Prussoff equation.

Counter-ions that a name gives are not always drawn.

T1 sequence (P37288 whole entry): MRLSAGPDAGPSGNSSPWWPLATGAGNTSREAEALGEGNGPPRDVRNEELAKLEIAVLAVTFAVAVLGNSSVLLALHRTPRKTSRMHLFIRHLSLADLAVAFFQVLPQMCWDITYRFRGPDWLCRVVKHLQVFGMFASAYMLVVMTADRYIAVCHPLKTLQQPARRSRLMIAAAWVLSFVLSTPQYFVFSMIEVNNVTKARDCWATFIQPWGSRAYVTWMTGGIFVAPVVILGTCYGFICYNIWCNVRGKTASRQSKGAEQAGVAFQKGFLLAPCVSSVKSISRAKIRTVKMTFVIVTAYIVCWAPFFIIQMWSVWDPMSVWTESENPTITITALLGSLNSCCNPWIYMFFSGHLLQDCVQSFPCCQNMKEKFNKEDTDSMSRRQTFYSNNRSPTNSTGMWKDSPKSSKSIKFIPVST

For `CN1CCC[C@H]1Cn1cc(C(=O)N2CCC3(CC2)OCc2ncccc23)c2ccc(Cl)cc21` [Compound 4, 1′-[(6-Chloro-1-{[(2S)-1-methylpyrrolidin-2-yl]methyl}-1H-indol-3-yl)carbonyl]-7H-spiro[furo[3,4-b]pyridine-5,4′-piperidine]], the Ki was 1.55 nM.

`CN1CCC[C@H]1Cn1cc(C(=O)N2CCC3(CC2)OCc2cccnc23)c2ccc(Cl)cc21` [Compound 9, 1′-[(6-Chloro-1-1{[(2S)-1-methylpyrrolidin-2-yl]methyl}-1H-indol-3-yl)carbonyl]-5H-spiro[furo[3,4-b]pyridine-7,4′-piperidine]]: the Ki was 1 nM.

Turning to `CC(C)(C)OC(=O)N1CCC[C@H]1Cn1cc(C(=O)N2CCC3(CC2)OCc2cccnc23)c2ccc(Cl)cc21` [Compound 7, tert-Butyl (2S)-2-{[6-chloro-3-(1′H,5H-spiro[furo[3,4-b]pyridine-7,4′-piperidin]-1′-ylcarbonyl)-1H-indol-1-yl]methyl}pyrrolidine-1-carboxylate], the Ki was 22.9 nM.

As for `O=C(c1cn(C[C@@H]2CCCN2)c2cc(Cl)ccc12)N1CCC2(CC1)OCc1ccncc12` [Compound 12, 1′-({6-Chloro-1-[(2S)-pyrrolidin-2-ylmethyl]-1H-indol-3-yl}carbonyl)-1H-spiro[furo[3,4-c]pyridine-3,4′-piperidine]dihydrochloride], the Ki is 4.57 nM.

In the case of `CC(C)(C)OC(=O)N1CCC[C@H]1Cn1cc(C(=O)N2CCC3(CC2)OCc2ccncc23)c2ccc(Cl)cc21` [Compound 11, tert-Butyl (2S)-2-{[6-chloro-3-(1H, 1′H-spiro[furo[3,4-c]pyridine-3,4′-piperidin]-1′-ylcarbonyl)-1H-indol-1-yl]methyl}pyrrolidine-1-carboxylate], the Ki was 23.4 nM.

Regarding `O=C(c1cn(C[C@@H]2CCCN2)c2cc(Cl)ccc12)N1CCC2(CC1)OCc1cccnc12` [Compound 8, 1′-({6-Chloro-1-[(2S)-pyrrolidin-2-ylmethyl]-1H-indol-3-yl}carbonyl)-5H-spiro[furo[3,4-b]pyridine-7,4′-piperidine]dihydrochloride], the Ki is 3.31 nM.

In the case of `O=C(c1c[nH]c2cc(Cl)ccc12)N1CCC2(CC1)OCc1ccncc12` [Compound 10, 1′-[(6-Chloro-1H-indol-3-yl)carbonyl]-1H-spiro[furo[3,4-c]pyridine-3,4′-piperidine]], the Ki is 8.71 nM.

Turning to `O=C(c1cn(Cc2cc(F)cc(F)c2)c2cc(Cl)ccc12)N1CCC2(CC1)OCc1ncccc12` [Compound 5, 1′-{[6-Chloro-1-(3,5-difluorobenzyl)-1H-indol-3-yl]carbonyl}-7H-spiro[furo[3,4-b]pyridine-5,4′-piperidine]], the Ki is 4.37 nM.

Consider `O=C(c1c[nH]c2cc(Cl)ccc12)N1CCC2(CC1)OCc1cccnc12` [Compound 6, 1′-[(6-Chloro-1H-indol-3-yl)carbonyl]-5H-spiro[furo[3,4-b]pyridine-7,4′-piperidine]], for which the Ki was 5.25 nM.

As to `CN1CCC[C@H]1Cn1cc(C(=O)N2CCC3(CC2)OCc2ccncc23)c2ccc(Cl)cc21` [Compound 13, 1′-[(6-Chloro-1-{[(2S)-1-methylpyrrolidin-2-yl]methyl}-1H-indol-3-yl)carbonyl]-1H-spiro[furo[3,4-c]pyridine-3,4′-piperidine]], the Ki was 1.1 nM.

For `O=C(c1cn(C[C@@H]2CCCN2)c2cc(Cl)ccc12)N1CCC2(CC1)OCc1ncccc12` [Compound 3, 1′-({6-Chloro-1-[(2S)-pyrrolidin-2-ylmethyl]-1H-indol-3-yl}carbonyl)-7H-spiro[furo[3,4-b]pyridine-5,4′-piperidine]dihydrochloride], the Ki was 25.1 nM.

`O=C(c1cn(Cc2cc(F)cc(F)c2)c2cc(Cl)ccc12)N1CCC2(CC1)OCc1cccnc12` [Compound 14, 1′-{[6-Chloro-1-(3,5-difluorobenzyl)-1H-indol-3-yl]carbonyl}-5H-spiro[furo[3,4-b]pyridine-7,4′-piperidine]]: the Ki is 4.27 nM.

The record behind these values is patent US8034937B2, “Azaspiro derivatives” (Hoffmann-La Roche Inc., priority 2006, dated 2011).
